# Experimental data taken from patent US20150224164A1, “TREATMENT OF AUTISM SPECTRUM DISORDERS USING GLYCYL-L-2-METHYLPROLYL-L-GLUMATIC ACID” (Neuren Pharmaceuticals Limited, priority 2013, published 2015).
# Where a SMILES comes first, the peptide text is derived from it.
# Tests used:
# GFAP-positive astrocytes = experiment: Astrocytosis, GFAP staining in aged brains; format: in vivo, rat; conditions: 18-month old rats; i.p.; 3 d; particularly 0.12 and 12 mg/kg; p<0.05
# Procedure: To carry out these studies, tissues were fixed and embedded in paraffin and sections obtained using standard methods. Coronal sections (6 μm) containing the level of the hippocampus were cut and mounted on chrome-alum-coated slides for staining. The sections were deparaffinized in xylene, […] in a series of ethanol and incubated in 0.1 M phosphate buffered saline (PBS). Primary antibodies against glial fibrillary acidic protein (GFAP) and proliferating cell nuclear antigen (PCNA) were used to mark reactive glial cells and cells undergoing apoptosis and proliferation, respectively. For antigen unmasking (caspase-3 and PCNA staining), sections were heated in 10 mM sodium citrate buffer (pH 6.0) for 1 min at high power. All sections were pretreated with 1% H2O2 in 50% methanol for 30 min to quench the endogenous peroxidase activity. […] The number of PCNA positive cells was counted in the subventricular zone and the GFAP positive cells was scored in the cerebral cortex. We also evaluated effects of G-2-MePE on astrocytosis in the CA4 sub-region of the hippocampus in aged rats. […] GFAP-positive cells were counted using a computerised program (Discovery 1). G-2-MePE was administered intra-peritoneally and the numbers of GFAP-positive cells were assessed 3d after the injection. […]
# fmr1 knockout mice = experiment: Elevated plus maze, fmr1 knockout mice; format: in vivo, mouse
# Procedure: G-2-MePE was administered at the dose of 100 mg/kg i.p. in 0.1 ml saline, once daily for 28 days. Vehicle-treated animals were injected with 0.1 ml saline daily for 28 days. Thereafter, drug or vehicle treatments were stopped and animals were tested on successive days until all tests were completed. Finally, the animals were sacrificed for determining expression of pAkt and pERK The Elevated Plus Maze (EPM) is a further test system for examining anxiety and locomotor activity. The EPM was built according to the description of Lister (Lister 1987). Briefly, the maze consisted of two open and two closed arms opposite each other in a plus shape, raised above floor height. The open arms were more exposed and therefore more anxiogenic. Wild-type mice therefore spent more time in the closed arms and visited them more. Mice were tested for 5 min and their behaviour was recorded. Measures taken included time spent in the arms and the center of the maze, and number of arm entries.
# MeCP2 deficient mice = experiment: Survival after oral administration (Example 11); format: in vivo, mouse; conditions: 20 or 80 mg/kg daily
# Procedure: Therefore, we administer G-2-MePE orally to MeCP2 deficient mice as described in US 2009/0074865. Briefly, an aqueous solution, a water-in-oil emulsion (micro-emulsion, coarse emulsion or liquid crystal), or a gel composition containing a pharmaceutically effective amount of G-2-MePE (20 or 80 mg/kg per animal) is administered daily. In control MeCP2 deficient animals, we administer saline only, and wild-type animals are used to obtain baseline data similar to the design of studies described in Example 8 above.
# [1] = system: cortical neurons injured with okadaic acid; experiment: In vitro neuroprotection, cortical cultures injured with okadaic acid (MTT); format: cell-based, rat; conditions: 10 μM; okadaic acid injury; 24 hours incubation; MTT-assay
# Procedure: A dam was sacrificed by CO2-treatment, and then was prepared for caesarean section. After surgery, the embryos were removed from their amniotic sacs and decapitated. The heads were placed on ice in DMEM/F12 medium for striatum and PBS+0.65% D(+)-glucose for cortex.
# The two cortical hemispheres were carefully removed by spatula from the whole brain with the ventral side facing upside into a PBS+0.65% D(+)-glucose containing petri dish. Forceps were put into the rostral part (near B. olfactorius) of the cortex in order to fix the tissue and two lateral-sagittal oriented cuts were made to remove the […] and entorhinal cortices. […]
# The cells were triturated once with a glass Pasteur pipette in 1 ml of Neurobasal/B27 medium and subsequently twice by using a 1 ml insulin syringe with a 22 gauge needle. […] Cells were counted and adjusted to 50,000 cells per 60 μl. […]
# To cause toxic injury to neurons, we exposed neurons to 1:100 parts of okadaic acid at concentrations of 30 nM or 100 nM and 0.5 mM 3-nitropropionic acid (for cerebellar microexplants only). […] The survival rate was determined by a colorimetric end-point MTT-assay at 595 nm in a multi-well plate reader. For the cerebellar microexplants four windows (field of 0.65 mm^2) with highest cell density were chosen and cells displaying neurite outgrowth were counted.
structure (smiles),measurement,setting,value
"C[C@@]1(C(=O)N[C@@H](CCC(=O)O)C(=O)O)CCCN1C(=O)CN [Example G-2-MePE, Glycyl-L-2-methylprolyl-L-glutamic acid] (HELM PEPTIDE1{G.[C[C@@]1(C(=O)[*:2])CCCN1[*:1]].E}$$$$V2.0)",number of reactive astrocytes (GFAP) in CA4 region of hippocampus,GFAP-positive astrocytes,reduced number of reactive astrocytes
same,percent open arm entries,fmr1 knockout mice; 100 mg/kg i.p. 28 days,completely normalised
same,time spent in the centre,fmr1 knockout mice; 28-days treatment,normalised
same,survival,MeCP2 deficient mice,survival is increased substantially
same,neuroprotection,[1],59%
